Laboratory results: EP2659887A1, “Use of A-ring aromatic acetyl minocycline and pharmaceutical preparations derived from same for treatment and prevention of inflammation, autoimmune disorders and rejection of transplants” (priority 2012, dated 2013)

Experiments:
[1] = test system: humane T-Lymphozyten; experiment: Viability of stimulated human T lymphocytes (CellTiter-Blue Cell Viability Assay); conditions: up to 5,0 µM; PWM (Figur 2A) or anti-CD3 (Figur 2B) stimulation
Method: Humane T-Lymphozyten wurden in serumfreiem Kulturmedium mit anti-CD3-Antikörpern (Klon OKT3) bzw. mit Pokeweed-Mitogen (PWM, 2 µg/ml) in An- und Abwesenheit verschiedener Konzentrationen von Minocyclin oder Pentaacetylcyclin stimuliert. Die Ermittlung der Proliferation (DNS-Synthese) der Zellen erfolgte nach 72 Stunden über den Einbau von 3H-Thymidin. Zur Überprüfung der Vitalität der Zellkulturen wurde der CeIITiter-Blue® Cell Viability-Assay (Promega) verwendet.

[2] = test system: humane T-Lymphozyten; experiment: Proliferation (DNA synthesis, 3H-thymidine incorporation) of stimulated human T lymphocytes; assay type: cell-based; conditions: remaining proliferation; PWM or anti-CD3 stimulation, 2,5 bis 5,0 µM
Text: In in vitro-Untersuchungen dienten humane T-Lymphozyten des peripheren Blutes gesunder Spender zur Testung der immunmodulatorischen/immunsuppressiven Wirkung der Testsubstanzen. Eine gesteigerte Zellteilung/Proliferation dieser Immunzellen nach Stimulation simuliert in vitro eine Entzündungsreaktion. Eine Verringerung dieser stimulierten Proliferation durch applizierte Substanzen veranschaulicht deren immunmodulatorischen/immunsuppressiven Eigenschaften.

[3] = test system: humane T-Lymphozyten; experiment: Cytokine production of PWM-stimulated human T lymphocytes (ELISA of culture supernatants); assay type: cell-based; conditions: PWM 2 µg/ml, 48 h
Text: Zytokine stellen Indikatoren für die Stärke einer Entzündungsreaktion dar und sind aktive Regulatoren der Differenzierung und Proliferation von T-Lymphozyten. Aus diesem Grund lassen sich aus den in einem in vitro-Testsystem gewonnenen Daten zur Produktion/Freisetzung von Zytokinen detailliertere Aussagen über die immunmodulierenden/immunsuppressiven Eigenschaften von Testsubstanzen herleiten.
Anschließend erfolgte die Messung der Konzentrationen von Interferon-y (IFN-y), Interleukin-2 (IL-2) und Interleukin-17 (IL-17) in den Zellkulturüberständen mittels spezifischer ELISA (R&D Systems).

[4] = test system: Splenozyten (Milzzellen) der SJL/J-Mäuse; experiment: Cytokine release of PWM-stimulated mouse splenocytes (ELISA of culture supernatants); assay type: cell-based, Maus; conditions: Splenocyte, remaining release at 5,0 µM, 48 h (Figur 6A), read-out: Reduktion der Freisetzung von IFN-γ (auf)
Method: Zur Verifizierung der an humanen […] in vitro-Untersuchungen an Splenozyten (Milzzellen) der SJL/J-Mäuse. Diese Splenozyten von wurden mit Pokeweed-Mitogen (PWM, 1 μg/ml) stimuliert und in An- oder Abwesenheit verschiedener Konzentrationen von Minocyclin und Pentaacetylcyclin inkubiert. Nach 48 Stunden erfolgte die Analyse der Zellkulturüberstände hinsichtlich der Freisetzung der Zytokine Interferon-y (IFN-y) und Interleukin-17 (IL-17) mittels spezifischer ELISA (R&D Systems).

[5] = test system: Experimentelle Autoimmune Enzephalomyelitis (EAE); experiment: Experimental autoimmune encephalomyelitis (EAE) mouse model of multiple sclerosis, therapeutic treatment, EAE score; assay type: in vivo, SJL/J-Maus; conditions: 100 µg/Tag; for Effekt auf die akute Phase der EAE (EAE-Score): intraperitoneal, Tag 12 bis Tag 20, therapeutic
Text: Als Maß für die Wirkung der therapeutischen Applikation wurde täglich der Schweregrad der EAE-Erkrankung (EAE-Score) bestimmt.

[6] = test system: Splenozyten (Milzzellen) von SJL/J-Mäusen; experiment: Proliferation (DNA synthesis, 3H-thymidine incorporation) of stimulated mouse splenocytes; assay type: cell-based, Maus; conditions: 2,5 bzw. 5,0 µM
Method: (§1) In weiteren in vitro-Untersuchungen dienten Splenozyten (Milzzellen) von SJL/J-Mäusen zur Testung der immunmodulatorischen/immunsuppressiven Wirkung der Testsubstanzen. Nach Stimulation der Splenozyten mit Pokeweed-Mitogen (PWM, 1 μg/ml) oder mit […] (Klon 145-2C11, BD Biosciences) erfolgte die Inkubation dieser Immunzellen in An- oder Abwesenheit verschiedener Konzentrationen von Minocyclin und Pentaacetylcyclin. Die anschließende Proliferation (DNS-Synthese) der Zellen wurde nach 72 Stunden über den Einbau von […]-Blue® Cell Viability-Assays (Promega).

[7] = test system: Experimentelle Autoimmune Enzephalomyelitis (EAE); experiment: Number of inflammatory immune cell infiltrates in the spinal cord after EAE (histology); assay type: in vivo, SJL/J-Mäusen; conditions: intraperitoneal or oral, 100 µg/Tag, Tag 13 bis Tag 17; analysis Tag 20
Text: Als Folge einer T-Lymphozyten-Aktivierung und -Differenzierung kommt es bei der EAE zu einer massiven Einwanderung (Infiltration) von Immunzellen in das Rückenmark der Mäuse. Diese Immunzellen vermitteln durch Demyeliniserung und neuronale Schädigung die weitere Erkrankung und lassen sich auf histologischen Schnitten als entzündliche Infiltrate darstellen und analysieren. Die Stärke der Infiltration von Immunzellen in das Rückenmark während der EAE korreliert im Allgemeinen mit dem Schweregrad der EAE-Erkrankung.
Deshalb erfolgte die histologische Analyse der entzündlichen Infiltrate im Rückenmark von SJL/J-Mäusen nach EAE und 5-tägiger therapeutischer Applikation von Minocycline bzw. Pentaacetylcyclin.
Die EAE wurde in SJL/J-Mäusen durch Immunisierung mit einem Myelinprotein-Peptid (Proteolipid-Protein 139-151, PLP 139-151) induziert. Die Applikation von Minocyclin, Pentaacetylcyclin und einem Kontroll-Vehikel erfolgte in einem therapeutischen Ansatz (nach eindeutiger Ausbildung der EAE-Erkrankung) in zwei getrennten Versuchsansätzen: • 1.) intraperitoneal (i.p., 100 µg/Tag) von Tag 13 bis Tag 17 • 2.) oral (100 µg/Tag) von Tag 13 bis Tag 17.
Am Tag 20 nach Immunisierung erfolgte die Aufarbeitung des Rückenmarks der Mäuse für histologische Untersuchungen (Paraffin-Schnitte, HE-Färbungen). […]

[8] = test system: Splenozyten (Milzzellen) von SJL/J-Mäusen; experiment: Viability of stimulated mouse splenocytes (CellTiter-Blue Cell Viability Assay); assay type: cell-based, Maus; conditions: up to 5,0 µM; PWM (Figur 5A) or anti-CD3 (Figur 5B) stimulation
Method: as §1

SMILES | Vitalität der T-Lymphozyten [1] | reduzierte Zellteilung (bis auf) [2] | Produktion/Freisetzung von IL-2 ([3]; 2,5 bis 5,0 µM (Figur 3A)) | Produktion/Freisetzung von IFN-γ ([3]; 2,5 bis 5,0 µM (Figur 3B)) | Produktion/Freisetzung von IL-17 ([3]; 2,5 bis 5,0 µM (Figur 3C)) | activity at 5 µM [4] [%] | Effekt auf die akute Phase der EAE (EAE-Score) [5] | Effekt auf die akute Phase der EAE (EAE-Score) ([5]; listed as Pentaacetylminocyclin) | Einfluss auf die akute Phase der EAE (EAE-Score) ([5]; oral, Tag 14 bis Tag 22, therapeutic) | Proliferation (DNS-Synthese) stimulierter Splenozyten ([6]; PWM (1 µg/ml) or anti-CD3 (145-2C11) stimulation, 72 h) | reduzierte Zellteilung (bis auf) ([6]; remaining proliferation, 4320 min) | Zahl der entzündlichen Infiltrate im Rückenmark [7] | Vitalität der Splenozyten [8]
CC(=O)NC(=O)c1c(OC(C)=O)c2c(c(N(C)C)c1OC(C)=O)CC1Cc3c(N(C)C)ccc(OC(C)=O)c3C(=O)C1=C2OC(C)=O (centres unmarked) [Pentaacetylcyclin] | nicht beeinträchtigt | ca. 20% | signifikante Hemmung | signifikante Hemmung | signifikante Hemmung | ~60 | signifikanten therapeutischen Effekt | signifikanten Einfluss | signifikanten Einfluss | signifikante Hemmung | ca. 30% | deutliche Verringerung | keine Veränderung
CN(C)c1ccc(O)c2c1C[C@H]1C[C@H]3[C@H](N(C)C)C(O)=C(C(N)=O)C(=O)[C@@]3(O)C(O)=C1C2=O [Minocyclin] | nicht beeinträchtigt |  |  |  |  |  |  |  |  |  |  |  | 
